Laboratory results from patent US20260347401A1, “Peptide Fragment And Use Thereof” (TOAGOSEI CO., LTD., priority 2023, published 2026).
FAM = 5(6)-carboxyfluorescein

Tested on: NSC-34 cells
Experiment: Evaluation of cell membrane permeability by flow cytometry (fluorescence of FAM taken up by NSC-34 cells)
Assay type: cell-based, mouse
Conditions: for median fluorescence intensity (MFI): 10 μM in culture solution, 0.50% DMSO, 37 °C, 5% CO2, flow cytometer detector FL2; for median fluorescence intensity (MFI) / MFI compared with Example 3 (FAM): 20 hours; for cell membrane permeability: peptide fragment, tested as FAM construct, conclusion in words; for MFI compared with Example 3 (FAM): 10 μM, result in words
Procedure: As the eukaryotic cells, NSC-34 cells (mouse motor neuron-like hybrid cell line) were used and the cell membrane permeability of the prepared construct was evaluated.
The NSC-34 cell was cultured in 10% fetal bovine serum (FBS)-containing Dulbecco's modified Eagle's medium (DMEM (Cat No. 044-29765, manufactured by FUJIFILM Wako Pure Chemical Corporation)), which is a culture medium.
The NSC-34 cell that adhered to a culture plate was cleaned with PBS and then, a 0.25%-trypsin/EDTA solution was added thereto, and incubation was performed for three minutes at 37 °C. After the incubation, the aforementioned 10% FBS-containing DMEM was added to deactivate trypsin and then, five-minute centrifugal separation was performed at 150×g to precipitate the cells. After the supernatant generated by the centrifugal separation was removed, the 10% FBS-containing DMEM was added to the precipitate (cell pellet) to prepare a cell suspension of about 2×10^5 cells/mL. The cell suspension was added by 1 mL to a well of a commercially available six-hole (well) plate (manufactured by AGC TECHNO GLASS Co., Ltd.) so as to seed the cell (about 2×10^5 cells/well), and incubation was caried out for about two to three hours until the cell adhered to a bottom surface of the well. After that, the 2 mM sample solution 1 prepared as above was diluted with the 10% FBS-containing DMEM to prepare the sample solution 1 in which the concentration of the sample was 20 μM. Then, 1 mL of the 20 μM sample solution 1 was added to the well (that is, so that the concentration of the construct 1 became 10 μM and the DMSO concentration became 0.50% in the culture solution in the well). The cell was incubated for 20 hours at 37 °C under a 5% CO2 condition.
After the 20-hour incubation, the culture supernatant was removed from the well and the cells in the well were cleaned twice with 1 mL of PBS. Next, 100 μL of the 0.25% trypsin/EDTA solution was added to the well and the incubation was performed for three minutes at 37 °C. After the incubation, 900 μL of the 10% FBS-containing DMEM was added to the well to deactivate the trypsin. The cell suspension in the well was transferred to a tube and the cells were collected. After that, pre-washing was performed additionally, so that the cells remaining in the well were collected in the tube. This tube was subjected to five-minute centrifugal separation at 4 °C under a condition of 210×g. After the centrifugal separation, the supernatant was removed and the precipitate (cell pellet) was suspended (cleaned) with 1 mL of PBS, which was followed by the centrifugal separation under the same condition as that described above. Then, the supernatant was removed and thus, the cells (cell pellet) cultured in a culture medium containing the sample were obtained.
Regarding the obtained cells (cell pellet), the cell membrane permeability was analyzed using a flow cytometer. As the flow cytometer, On-Chip Flowcytometer (manufactured by On-Chip Biotechnologies Co., LTD.) was used.
For such an analysis, the obtained cell pellet was suspended with 50 μL of on-chip T buffer to prepare a cell suspension for analysis.
Using the aforementioned flow cytometer, gating based on forward scatter (FSC) and side scatter (SSC) was performed to set a gate about a cell group to be analyzed, and the fluorescence intensity was measured about the cell group in this gate. Note that the number of cells of the cell group to be analyzed was set to at least 10000, and the analysis was performed. The fluorescence intensity was measured using a fluorescence detector FL2 of the flow cytometer (optimum detection wavelength around 543 nm) capable of detecting the fluorescence wavelength of FAM. Regarding this measurement result, the analysis was performed using commercially available analysis software “FlowJo” (manufactured by TreeStar) to obtain median fluorescence intensity (MFI) of the cell group to be measured (see Table 1). […]

## 5(6)-carboxyfluorescein [Example 3, reference compound]
  median fluorescence intensity (MFI): 7.28

## VLSRVVQLLREKLTRKK [SEQ ID No.: 1, peptide fragment (synthetic peptide) having cell membrane permeability]
  cell membrane permeability: has the cell membrane permeability

## VLSRVQLREKLTR [SEQ ID No.: 2, peptide fragment (synthetic peptide) having cell membrane permeability]
  cell membrane permeability: has the cell membrane permeability

## Ac-VLSRVVQLLREKLTRKK-FAM [Example 1]
  median fluorescence intensity (MFI): 30.4
  MFI compared with Example 3 (FAM): higher

## Ac-VLSRVQLREKLTR-FAM (Ac-VLSRVQLREKLTR-{FAM}) [Example 2]
  median fluorescence intensity (MFI): 31.3
  MFI compared with Example 3 (FAM): higher
